Test results: patent US20010003121A1, “Novel compounds” (AstraZeneca UK Limited, priority 1997, published 2001)
Structures can show the parent of a compound that is named as a salt.

Structure (SMILES) | melting point
Nc1cccc(Cl)c1C(=O)NCCC12CC3CC(CC(C3)C1)C2 [Example 29, 2-Amino-6-chloro-N-(2-[tricyclo[3.3.1.1^3,7]dec-1-yl]ethyl)-benzamide] | 132 to 134 °C
CN(C)CCNc1cccc(C(=O)NCC23CC4CC(CC(C4)C2)C3)c1Cl [Example 56, 2-Chloro-3-(N,N-dimethylamino)ethylamino-N-(tricyclo[3.3.1.1^3,7]dec-1-ylmethyl)-benzamide] | 221 °C
CN(C)CCCOc1ccc(Sc2ncccc2C(=O)NCC23CC4CC(CC(C4)C2)C3)cc1 (as salt: hydrochloride) [Example 48, 2-(4-(3-N,N-dimethylamino)propyloxyphenylthio)-N-(tricyclo[3.3.1.1^3,7]dec-1-ylmethyl)-3-pyridine carboxamide, dihydrochloride] | 177 to 178 °C
Cc1ccc(C)c(C(=O)NCC23CC4CC(CC(C4)C2)C3)c1 [Example 22, 2,5-Dimethyl-N-(tricyclo[3.3.1.1^3,7]dec-1-methyl)-benzamide] | 153 to 154 °C
C[S+]([O-])c1ncccc1C(=O)NCC12CC3CC(CC(C3)C1)C2 (stereo not shown) [Example 27, 2-(Methylsulphoxide)-N-(tricyclo[3.3.1.1^3,7]dec-1-methyl)-3-pyridine carboxamide] | 214 °C
COc1cc(OC)cc(C(=O)NCC23CC4CC(CC(C4)C2)C3)c1 [Example 68] | 130 to 133 °C
CN(C)c1ncccc1C(=O)NCC12CC3CC(CC(C3)C1)C2 (as salt: hydrochloride) [Example 35, 2-(Dimethylamino)-N-(tricyclo[3.3.1.1^3,7]dec-1-ylmethyl)-3-pyridine carboxamide, hydrochloride] | 204 to 205 °C
O=C(NCC12CC3CC(CC(C3)C1)C2)c1ccccc1[N+](=O)[O-] [Example 9, 2-Nitro-N-(tricyclo[3.3.1.1^3,7]dec-1-methyl)-benzamide] | > 250 °C
O=C(NCC12CC3CC(CC(C3)C1)C2)c1cccc(Cl)c1 [Example 20, 3-Chloro-N-(tricyclo[3.3.1.1^3,7]dec-1-methyl)-benzamide] | 125 to 126 °C
Nc1cccc(Cl)c1C(=O)NCC12CC3CC(CC(C3)C1)C2 [Example 14, 2-Amino-6-chloro-N-(tricyclo[3.3.1.1^3,7]dec-1-methyl)-benzamide] | 182 to 183 °C
N#Cc1ccccc1Sc1ccccc1C(=O)NCC12CC3CC(CC(C3)C1)C2 [Example 16, 2-(2-Cyanophenylthio)-N-(tricyclo[3.3.1.1^3,7]dec-1-methyl)-benzamide] | 62 to 65 °C
O=C(NCC12CC3CC(CC(C3)C1)C2)c1c(Cl)cccc1Cl [Example 4, 2,6-Dichloro-N-(tricyclo[3.3.1.1^3,7]dec-1-methyl)-benzamide] | 246 to 247 °C
O=C(O)CCCOc1ccccc1C(=O)NCC12CC3CC(CC(C3)C1)C2 [Example 50, 2-[[(Tricyclo[3.3.1.1^3,7]dec-1-ylmethyl)amino]carbonyl]phenyl-1-oxybutyric acid] | 109 to 113 °C
COc1cc(OC)c(C)c(C(=O)NCC23CC4CC(CC(Cl)(C4)C2)C3)c1 [Example 79, 3,5-Dimethoxy-2-methyl-N-(3-chloro-tricyclo[3.3.1.1^3,7]dec-1ylmethyl)-benzamide] | 173 to 175 °C
CNc1ccc(Cl)c(C(=O)NCC23CC4CC(CC(C4)C2)C3)c1 [Example 62, 2-Chloro-5-methylamino-N-(tricyclo[3.3.1.1^3,7]dec-1-ylmethyl)-benzamide] | 163 to 164 °C
O=C(NCCC12CC3CC(CC(C3)C1)C2)c1cccc(Cl)c1Cl [Example 73, 2,3-Dichloro-N-(2-[tricyclo(3.3.1.1^3,7]dec-1-yl]ethyl)-benzamide] | 158 to 159 °C
O=C(NCC12CC3CC(CC(C3)C1)C2)c1cc(NCCCl)ccc1Cl | 144 to 145 °C
O=C(NCC12CC3CC(CC(C3)C1)C2)c1cc([N+](=O)[O-])ccc1Cl [Example 53, 2-Chloro-5-nitro-N-(tricyclo[3.3.1.1^3,7]dec-1-ylmethyl)-benzamide] | 178 °C
O=C(NCC12CC3CC(CC(C3)C1)C2)c1cc(NCCN2CCCCC2)ccc1Cl (as salt: hydrochloride) [Example 70, 2-Chloro-5-(2-(piperidin-1-yl)ethylamino)-N-(tricvclo(3.3.1.1^3,7]dec-1-ylmethyl)-benzamide, hydrochloride] | 142 to 143 °C (dec.)
NCCSc1ncccc1C(=O)NCC12CC3CC(CC(C3)C1)C2 (as salt: trifluoroacetate) [Example 31, 2-(2-Aminoethylthio)-N-(tricyclo[3.3.1.1^3,7]dec-1-ylmethyl)-3-pyridine carboxamide, trifluoroacetate] | 184 °C
O=C(NCC12CC3CC(CC(C3)C1)C2)c1ccc(Cl)cc1Cl | 180 to 182 °C
Nc1ccc(Cl)c(C(=O)NCCC23CC4CC(CC(C4)C2)C3)c1 [Example 74, 5-Amino-2-chloro-N-(2-[tricyclo[3.3.1.1^3,7]dec-1-yl]ethyl)-benzamide] | 147 to 149 °C
